Reference: patent publication US20230069712A1, “COMPOUNDS FOR THE INDUCTION OF ANTIGEN-SPECIFIC IMMUNE TOLERANCE” (Anokion SA, priority 2019, published 2023)
No end group written: not given here.

System: multiple sclerosis pathology (EAE disease)
Assay: Mouse experimental autoimmune encephalomyelitis (EAE) model
Format: in vivo, mice
Conditions: intravenous injection on day 0, 3, and 6; adoptive transfer of MOG35-55-reactive T cells
Text: Myelin oligodendrocyte glycoprotein (MOG) 30-60 is a fragment of an autoantigen that is associated with multiple sclerosis that is used herein as a non-limiting example of an immunogenic fragment of MOG. […] To induce multiple sclerosis pathology (EAE disease), recipient mice were adoptively transferred on day 0 with MOG35-55-reactive T cells obtained from a separate, previously-vaccinated donor mouse. On day 0, 3, and 6, mice received via intravenous injection of either MOG30-60 peptide, MOG-30-60 peptide chemically conjugated to pGal (LT-MOG-30-60), or saline; an additional control group received administrations of a monoclonal antibody that binds VLA-4 (integrin alpha 4 beta 1). Multiple sclerosis pathology was assessed and scored daily by a pharmacology expert blinded to group identities. […] It shall be appreciated that, according to additional embodiments disclosed herein, other immunogenic fragments of MOG are effective in inducing tolerance to MOG, and thus treatment of MS.

## pGal-MOG30-60: MOG-30-60 peptide chemically conjugated to pGal (e.g., Polymer B) (KNATGMEVGWYRSPFSRVVHLYRNGKDQDAE; also: chemically conjugated to pGal polymer (e.g. Polymer B), site not given here; UniProt Q61885 58-88, looked up, fragment)
  protection from multiple sclerosis pathology (EAE disease), daily score: protected from multiple sclerosis pathology (EAE disease)

## MOG30-60: Myelin oligodendrocyte glycoprotein (MOG) 30-60 peptide, SEQ ID NO: 30, administered alone (KNATGMEVGWYRSPFSRVVHLYRNGKDQDAE; MOG 30-60; listed as Homo sapiens)
  protection from multiple sclerosis pathology (EAE disease), daily score: not substantively protected from disease
